# Test system: AKT protein phosphorylated on serine 473 (P-AKT-S473)
# Test: Study of pAKT expression in PC3 human prostate carcinoma cells measured by the MSD Multi-spot Biomarker Detection technique (Test B)
# Assay type: cell-based
# Details: PC-3, inhibition of AKT phosphorylation (P-AKT-S473), MSD sandwich immunoassay, 1 to 2 h incubation, absolute IC50, mean of 2 experiments
# Protocol: The inhibitory activity of the molecules on AKT phosphorylation is measured either by western blotting using the technique described below, or by the MSD Multi-spot Biomarker detection technique from Meso Scale Discovery also described below.
# Study of pAKT Expression in PC3 Human Prostate Carcinoma Cells Measured by the MSD Multi-Spot Biomarker Detection Technique from Meso Scale Discovery (Test B):
# The primary antibody specific for P-AKT-S473 (Kit #K151CAD) is coated on to an electrode in each well of the 96-well plates of the MSD, kit: after the addition of a protein lysate to each well, the signal is visualised by adding a secondary detection antibody labelled with an electrochemoluminescent compound. The procedure followed is that described in the kit.
# On day 2, the cells are incubated in the presence or absence of the test products for 1 to 2 h at 37° C. in the presence of 5% of CO2. The molecules, diluted in dimethyl sulphoxide (DMSO Sigma #D2650), are added from a 20-times concentrated stock solution, the final percentage of DMSO being 0.1%. The molecules are tested either at a single concentration of less than or equal to 10 μM, or at increasing concentrations in a range that can extend from less than 1 nM to 10 μM.
# After this incubation, the cells are lysed for the preparation of the proteins. […] At this stage, the plates containing the lysates can be stored at −20° C. or at −80° C.
# The wells of the 96-well plates of the MSD kit are saturated for 1 h at ambient temperature with the blocking solution of the MSD kit. Four washes are carried out with 150 μl of Tris Wash Buffer of the MSD kit. The lysates previously prepared are transferred into the 96-well multi-spot plates of the MSD kit and incubated for 1 h at ambient temperature, with shaking. Four washes are carried out with 150 μl of Tris Wash Buffer of the MSD kit. 25 μl of the MSD sulfo-tag detection antibody solution are added to the wells and incubated for 1 h at ambient temperature, with shaking. Four washes are carried out with 150 μl of Tris Wash Buffer of the MSD kit. 150 μl of Read Buffer of the MSD kit are added to the wells and the plates are read immediately on the S12400 instrument from Meso Scale Discovery.
# The instrument measures a signal for each well. Wells without cells and containing the lysis buffer serve to determine the background noise that will be subtracted from all the measurements (min). The wells containing cells in the absence of product and in the presence of 0.1% DMSO are considered to be the 100% signal (max). The percentage inhibition is calculated for each concentration of test product according to the following formula: (1-((test-min)(max-min)))×100.
# 2 independent experiments make it possible to calculate the mean of the IC50 values.
row,Compound,IC50 [nM]
1,"O=C(Cc1nc(N2CCOCC2)cc(=O)[nH]1)Nc1ccc(F)c(C(=O)O)c1 [Example 64, 2-fluoro-5-(([4-(morpholin-4-yl)-6-oxo-1,6-dihydropyrimidin-2-yl]acetyl)amino)benzoic acid]",10000
2,"O=C(Cc1nc(N2CCOCC2)cc(=O)[nH]1)N1CCc2ncccc21 [Example 146, 2-[2-(2,3-dihydro-1H-pyrrolo[3,2-b]pyridin-1-yl)-2-oxoethyl]-6-(morpholin-4-yl)pyrimidin-4(3H)-one]",180
3,"O=C(Cc1nc(N2CCOCC2)cc(=O)[nH]1)Nc1ccc(F)c(I)c1 [Example 74, N-(4-fluoro-3-iodophenyl)-2-[4-(morpholin-4-yl)-6-oxo-1,6-dihydropyrimidin-2-yl]acetamide]",10
4,"O=C(Cc1nc(N2CCOCC2)cc(=O)[nH]1)Nc1cc(Cl)c(F)c(Cl)c1 [Example 61, N-(3,5-dichloro-4-fluorophenyl)-2-[4-(morpholin-4-yl)-6-oxo-1,6-dihydropyrimidin-2-yl]acetamide]",77
5,"O=C(Cc1nc(N2CCOCC2)cc(=O)[nH]1)N1CCc2cc(F)ccc21 [Example 103, 2-[2-(5-Fluoro-2,3-dihydroindol-1-yl)-2-oxoethyl]-6-morpholin-4-yl-3H-pyrimidin-4-one]",7
6,"Cn1c(CC(=O)Nc2cc(F)c(F)c(F)c2)nc(N2CCOCC2)cc1=O [Example 98, 2-(1-methyl-4-morpholin-4-yl-6-oxo-1,6-dihydropyrimidin-2-yl)-N-(3,4,5-trifluorophenyl)acetamide]",219
7,"O=C(Cc1nc(N2CCOCC2)cc(=O)[nH]1)N1CCOc2c(Cl)cccc21 [Example 149, 2-[2-(8-chloro-2,3-dihydro-4H-1,4-benzoxazin-4-yl)-2-oxoethyl]-6-(morpholin-4-yl)pyrimidin-4(3H)-one]",43
8,"O=C(Cc1nc(N2CCOCC2)cc(=O)[nH]1)Nc1ccc(F)cc1Br [Example 66, N-(2-bromo-4-fluorophenyl)-2-[4-(morpholin-4-yl)-6-oxo-1,6-dihydropyrimidin-2-yl]acetamide]",131
9,"COCCOc1cc(F)ccc1NC(=O)Cc1nc(N2CCOCC2)cc(=O)[nH]1 [Example 138, N-[4-fluoro-2-(2-methoxyethoxy)phenyl]-2-[4-(morpholin-4-yl)-6-oxo-1,6-dihydropyrimidin-2-yl]acetamide]",35
10,O=C(Cc1nc(N2CCOCC2)cc(=O)[nH]1)Nc1ccc(F)c(C(F)F)c1 [Example 76],77
11,"O=C(Cc1nc(N2CCOCC2)cc(=O)[nH]1)Nc1ccc(F)cn1 [Example 27, N-(5-fluoropyridin-2-yl)-2-[4-(morpholin-4-yl)-6-oxo-1,6-dihydropyrimidin-2-yl]acetamide]",71
12,"Cc1cccc(NC(=O)Cc2nc(N3CCOCC3)cc(=O)[nH]2)c1O [Example 150, N-(2-hydroxy-3-methylphenyl)-2-[4-(morpholin-4-yl)-6-oxo-1,6-dihydropyrimidin-2-yl]acetamide]",189
13,"O=C(Cc1nc(N2CCOCC2)cc(=O)[nH]1)Nc1cccc(F)c1O [Example 87, N-(3-fluoro-2-hydroxyphenyl)-2-[4-(morpholin-4-yl)-6-oxo-1,6-dihydropyrimidin-2-yl]acetamide]",75
14,"O=C(Cc1nc(N2CCOCC2)cc(=O)[nH]1)N1CCc2c(O)cccc21 [Example 91, 2-[2-(4-hydroxy-2,3-dihydro-1H-indol-1-yl)-2-oxoethyl]-6-(morpholin-4-yl)pyrimidin-4(3H)-one]",71
15,"Cn1c(CC(=O)Nc2ccc(F)c(CO)c2)nc(N2CCOCC2)cc1=O [Example 81, N-[4-fluoro-3-(hydroxymethyl)phenyl]-2-[1-methyl-4-(morpholin-4-yl)-6-oxo-1,6-dihydropyrimidin-2-yl]acetamide]",1940
16,"O=C(Cc1nc(N2CCOCC2)cc(=O)[nH]1)Nc1cccc2occc12 [Example 84, N-(1-benzofur-4-yl)-2-[4-(morpholin-4-yl)-6-oxo-1,6-dihydropyrimidin-2-yl]acetamide]",17
